“Also recorded” adds a separate entry of the source.
Experiments:
Type in all cases: physicochemical
[1] = Physical stability upon exposure to AAC (40° C./75% RH) for 2 days, remeasured by HT-XRPD; conditions: for solid form conversion upon exposure to AAC: HT-XRPD
Experimental: (§1) The solvent equilibration experiments were incubated in the Crystal16™ parallel crystallization reactor at 5, 25 and 50° C. for 3 days. Up on completion of the ageing time, the solids were separated from the liquid phases, dried at ambient conditions and under vacuum, and analyzed by HT-XRPD. Afterwards, all solids were exposed to AAC (40° C./75% RH) for 2 days and remeasured by HT-XRPD. The liquids were analyzed by Karl Fisher to estimate the water content. The experimental details and results are reported in Table 9, Table 10 and Table 11.
(§2) Upon completion of the equilibration time, the solids were dried at ambient conditions and under vacuum (5 mbar/50° C./overnight) and analyzed by HT-XRPD. Afterwards, all solids were exposed to AAC (40° C./75% RH) for 2 days and remeasured by HT-XRPD.
as §2, with “Table 11: Experimental details and results of equilibration experiments performed at 50° C. for 1 week. Upon” for “Upon”, “mbar/RT/overnight)” for “mbar/50° C./overnight)”

[2] = Physical stability upon drying under vacuum, HT-XRPD
Experimental: as §1, §2
Thermocycling experiments were started by preparing suspensions of Form B1 in the selected anhydrous solvents. The suspensions were subjected to a temperature profile between 50 and 5° C., followed by aging at 25° C. for 72 hours. Upon completion of the aging time, the solids were separated from the liquid phases, dried at ambient conditions and under vacuum, and measured by HT-XRPD. When solutions were recovered, those were left to evaporate at ambient conditions.

[3] = Physical stability of Form B1 at three storage conditions (Example 10)
Experimental: Solid samples of Form B 1 was incubated at three different conditions to test physical stability: 80° C., closed vial, 24 hours; 60° C./29% RH, open vial, 48 hours; and 40° C./75% RH, open vial, 48 hours. The solids recovered after the stability studies were analyzed by HIR-XRPD, TGMS, and DSC.

[4] = Investigation under variable RH levels by DVS and XRPD
Experimental: The powder data were collected on D8 Advance diffractometer using Cu Kα1 radiation (1.54056 Å) with germanium monochromator at 30° C. using the SYCOS H-HOT hot humid chamber produced by Ansyco GmbH. The data were collected in the Bragg-Brentano geometry (locked coupled) from 8 to 35θ 2θ on the flat sample holder (without rotation) on solid state LynxEye detector with 0.018θ per step with 1 sec/step scan speed. After reaching demanded humidity the sample was relaxed for 5 minutes before measurement. The sample was optionally measured with 2 seconds per step and in the last measurement at RH 000 the relaxation time was elongated to 30 min.

[5] = sample recovered from thermocycling in ethyl acetate

For `CC(C)[C@@H](CC[C@@H](C)[C@H]1CCC2C3C(CC[C@@]21C)[C@@]1(C)CC[C@H](NCCCNCCCCN)C[C@@H]1C[C@H]3O)OS(=O)(=O)O.O=P(O)(O)O` (stereo in doubt) [Form D, squalamine phosphate], the “physical stability upon exposure to AAC” value [1] was “physically unstable” and the “solid form conversion upon exposure to AAC” value [1] was “converted to a mixture containing Form A1 and an unknown phase”.

With `CC(C)[C@@H](CC[C@@H](C)[C@H]1CC[C@H]2[C@@H]3[C@H](O)C[C@H]4C[C@@H](NCCCNCCCCN)CC[C@]4(C)[C@H]3CC[C@]12C)OS(=O)(=O)O.O=P(O)(O)O` [Form A1, squalamine phosphate] the “solid form conversion in vacuum-dried solids of the hydrate screen” value ([2]; vacuum-dried, in some cases) was “converted to the mixed hydrate/solvate Form A2, or to the low-degree hydrates B1 and B2”.

For `CC(C)[C@@H](CC[C@@H](C)[C@H]1CC[C@H]2[C@@H]3[C@H](O)C[C@H]4C[C@@H](NCCCNCCCCN)CC[C@]4(C)[C@H]3CC[C@]12C)OS(=O)(=O)O.O=P(O)(O)O` [Form A2, squalamine phosphate], the “physical stability upon exposure to AAC” value [1] was “physically unstable” and the “solid form conversion upon exposure to AAC” value ([1]; listed as A2) was “converted to Form A1”.

In the case of `CC(C)[C@@H](CC[C@@H](C)[C@H]1CC[C@H]2[C@@H]3[C@H](O)C[C@H]4C[C@@H](NCCCNCCCCN)CC[C@]4(C)[C@H]3CC[C@]12C)OS(=O)(=O)O.O=P(O)(O)O` [Form B1, squalamine phosphate], the “solid form conversion upon exposure to AAC” value ([1]; listed as B1) is reported as “converted to Form A1”, the “RH at which the form already absorbs water, converting to Form A1” value [3] is reported as 29 % RH and the “Mass loss (%)” value ([3]; TGMS of solid recovered after 40° C./75% RH, open vial 48 h) is reported as 8.9%. The “Mass loss (%)” value ([3]; TGMS of solid recovered after 60° C./29% RH, open vial 48 h) was 9.0% and the “Mass loss (%)” value ([3]; TGMS of solid recovered after 80° C., closed vial, 24 h) was 1.8%.

In the case of `CC(C)[C@@H](CC[C@@H](C)[C@H]1CC[C@H]2[C@@H]3[C@H](O)C[C@H]4C[C@@H](NCCCNCCCCN)CC[C@]4(C)[C@H]3CC[C@]12C)OS(=O)(=O)O.O=P(O)(O)O` [Form B2, squalamine phosphate], the “solid form conversion upon exposure to AAC” value ([1]; listed as B2) is reported as “converted to Form A1; also recorded: conversion to Form A1”, the “physical stability upon drying” value [2, 5] is reported as “not physically stable” and the “solid form conversion upon drying” value [2, 5] is reported as “converted to a mixture of Forms A1 and D”. For the same compound, the “physical stability upon drying” value ([2]; samples recovered from 1-propanol and THE) was “stable”.

For `CC(C)[C@@H](CC[C@@H](C)[C@H]1CC[C@H]2[C@@H]3[C@H](O)C[C@H]4C[C@@H](NCCCNCCCCN)CC[C@]4(C)[C@H]3CC[C@]12C)OS(=O)(=O)O.O=P(O)(O)O` [Form C, squalamine phosphate], the “behaviour on release of water at low RH levels or at high temperature” value [4] was “converting to Form A1”.

In the case of `CC(C)[C@@H](CC[C@@H](C)[C@H]1CC[C@H]2[C@@H]3[C@H](O)C[C@H]4C[C@@H](NCCCNCCCCN)CC[C@]4(C)[C@H]3CC[C@]12C)OS(=O)(=O)O.O=P(O)(O)O` [Form E, squalamine phosphate], the “solid form conversion upon exposure to AAC” value ([1]; listed as E) is reported as “converted to Form A1”, the “solid form conversion upon drying under vacuum” value ([2]; 5 mbar/50° C./overnight, solid from thermocycling in methanol) is reported as “converted to Form F; also recorded: conversion to a poorly crystalline phase, classified as Form F” and the “Physical Stability” value ([2]; upon drying at 50° C.) is reported as “Unstable upon”.

With `CC(C)[C@@H](CC[C@@H](C)[C@H]1CC[C@H]2[C@@H]3[C@H](O)C[C@H]4C[C@@H](NCCCNCCCCN)CC[C@]4(C)[C@H]3CC[C@]12C)OS(=O)(=O)O.O=P(O)(O)O` [Form F, squalamine phosphate] the “solid form conversion upon exposure to AAC” value ([1]; listed as F) was “converted to Form A1”.
